This is an account of results in patent US11401270B2, “Alcoxyamino derivatives for treating pain and pain related conditions” (ESTEVE PHARMACEUTICALS, S.A., priority 2017, dated 2022).

Assay [1] concerns the target Human α2δ-1 subunit of Cav2.2 calcium channel (Homo sapiens (Human), UniProt P54289). As to the kind of experiment: Binding Assay to Human α2δ-1 Subunit of Cav2.2 Calcium Channel. Particulars: human α2δ-1 enriched membranes, 15 nM [3H]-Gabapentin, read-out: Ki(nM) alpha2delta Hum. In short, it runs like this: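 Radioligand filtration binding at the α2δ-1 subunit, test compound at five concentrations; nonspecific binding defined with 10 μM pregabalin. Incubated 60 min at 27 °C, stopped by GF/C filtration (0.5% PEI presoaked) with ice-cold 50 mM Tris-HCl pH 7.4 washes; bound radioactivity counted by scintillation.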

For assay [2], the target named is Human norepinephrine transporter (NET) (Homo sapiens (Human), UniProt P23975). As to the kind of experiment: Binding Assay to Human Norepinephrine Transporter (NET). Particulars: Table 2, dual compounds; human NET enriched membranes, 5 nM [3H]-Nisoxetin; read-out: Ki(nM) NET Hum. In short, it runs like this:
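hNET-enriched membranes (5 μg) incubated with 5 nM [3H]-nisoxetine in Tris pH 7.4 containing 120 mM NaCl and 5 mM KCl, with compound at five concentrations, 60 min at 4 °C. Non-specific binding with 10 μM desipramine; filtration and scintillation counting.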

Read-outs that look alike come from different tables or passages of the source.

Sequence of Human α2δ-1 subunit of Cav2.2 calcium channel (P54289 25-1103): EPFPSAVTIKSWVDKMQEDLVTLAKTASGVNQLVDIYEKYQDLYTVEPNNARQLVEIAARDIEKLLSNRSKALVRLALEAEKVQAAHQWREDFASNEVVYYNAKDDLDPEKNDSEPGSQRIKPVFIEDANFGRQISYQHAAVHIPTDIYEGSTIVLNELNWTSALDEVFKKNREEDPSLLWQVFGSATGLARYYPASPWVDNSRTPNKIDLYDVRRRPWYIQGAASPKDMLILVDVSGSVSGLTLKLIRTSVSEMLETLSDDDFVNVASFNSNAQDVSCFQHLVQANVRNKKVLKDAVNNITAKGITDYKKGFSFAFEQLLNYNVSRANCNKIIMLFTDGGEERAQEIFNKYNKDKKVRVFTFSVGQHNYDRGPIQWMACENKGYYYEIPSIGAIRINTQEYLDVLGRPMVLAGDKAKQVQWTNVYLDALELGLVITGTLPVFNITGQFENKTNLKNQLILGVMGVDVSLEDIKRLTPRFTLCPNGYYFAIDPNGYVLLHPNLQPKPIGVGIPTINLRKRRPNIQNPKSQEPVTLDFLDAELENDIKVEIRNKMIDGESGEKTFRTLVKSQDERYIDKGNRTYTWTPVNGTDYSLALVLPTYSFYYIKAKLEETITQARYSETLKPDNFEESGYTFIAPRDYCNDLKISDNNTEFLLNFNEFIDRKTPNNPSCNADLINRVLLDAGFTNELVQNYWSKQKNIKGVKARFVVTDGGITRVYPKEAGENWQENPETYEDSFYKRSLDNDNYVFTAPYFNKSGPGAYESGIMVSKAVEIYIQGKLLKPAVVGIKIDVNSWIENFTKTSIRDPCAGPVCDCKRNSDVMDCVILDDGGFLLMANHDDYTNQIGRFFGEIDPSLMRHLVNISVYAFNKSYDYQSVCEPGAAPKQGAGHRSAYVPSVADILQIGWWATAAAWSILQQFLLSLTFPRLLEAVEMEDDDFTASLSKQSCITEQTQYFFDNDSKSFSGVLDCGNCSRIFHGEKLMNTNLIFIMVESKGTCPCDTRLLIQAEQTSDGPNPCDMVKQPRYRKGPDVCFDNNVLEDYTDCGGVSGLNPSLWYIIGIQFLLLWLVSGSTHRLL
Sequence of Human norepinephrine transporter (NET) (P23975 whole entry): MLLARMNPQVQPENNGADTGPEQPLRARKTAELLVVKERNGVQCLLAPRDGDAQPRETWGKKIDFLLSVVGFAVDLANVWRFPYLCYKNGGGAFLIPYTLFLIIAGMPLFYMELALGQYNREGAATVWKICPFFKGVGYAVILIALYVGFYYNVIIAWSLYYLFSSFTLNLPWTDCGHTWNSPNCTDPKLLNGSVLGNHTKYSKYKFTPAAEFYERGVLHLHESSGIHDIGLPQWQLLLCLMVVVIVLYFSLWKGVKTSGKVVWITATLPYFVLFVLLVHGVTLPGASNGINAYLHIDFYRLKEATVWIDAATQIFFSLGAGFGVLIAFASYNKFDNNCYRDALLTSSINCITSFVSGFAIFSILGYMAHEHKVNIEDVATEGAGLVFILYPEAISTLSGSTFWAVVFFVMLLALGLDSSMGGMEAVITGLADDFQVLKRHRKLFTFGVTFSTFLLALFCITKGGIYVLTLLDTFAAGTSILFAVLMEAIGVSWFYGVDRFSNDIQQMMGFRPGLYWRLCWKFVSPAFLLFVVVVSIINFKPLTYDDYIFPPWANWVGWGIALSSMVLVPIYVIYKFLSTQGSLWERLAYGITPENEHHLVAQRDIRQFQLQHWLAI

As to `CNCC[C@H](Oc1ccc(CN2CCCn3nc(OC)cc3C2=O)c(F)c1)c1ccccc1` [Example 144, (S)-5-(2-fluoro-4-(3-(methylamino)-1-phenylpropoxy)benzyl)-2-methoxy-5,6,7,8-tetrahydro-4H-pyrazolo[1,5-a][1,4]diazepin-4-one], the Ki in assay [1] (Table 1) was 100 to 500 nM; in assay [1] (Table 2, dual compounds) it was 100 to 500 nM; in assay [2], less than 100 nM.
For the compound `CNCC[C@H](Oc1ccc(CN2CCCn3nccc3C2=O)c(F)c1)c1ccccc1` [Example 145, (S)-5-(2-fluoro-4-(3-(methylamino)-1-phenylpropoxy)benzyl)-5,6,7,8-tetrahydro-4H-pyrazolo[1,5-a][1,4]diazepin-4-one], the Ki in assay [1] (Table 1) is 500 to 3000 nM; in assay [1] (Table 2, dual compounds) it was 500 to 3000 nM; in assay [2], less than 100 nM.
Turning to `CCNc1ccc2c(n1)N(C)CCN(Cc1ccc(O[C@@H](CCNC)c3cccc(F)c3)cc1F)C2=O` [Example 148, (S)-8-(ethylamino)-4-(2-fluoro-4-(1-(3-fluorophenyl)-3-(methylamino)propoxy)benzyl)-1-methyl-1,2,3,4-tetrahydro-5H-pyrido[2,3-e][1,4]diazepin-5-one], the Ki in assay [1] (Table 1) was 100 to 500 nM; in assay [1] (Table 2, dual compounds), 100 to 500 nM; in assay [2] it was less than 100 nM.
For `CNCC[C@H](Oc1ccc(CN2CCN(C)c3ncccc3C2=O)c(Cl)c1)c1cccc(F)c1` [Example 149, (S)-4-(2-chloro-4-(1-(3-fluorophenyl)-3-(methylamino)propoxy)benzyl)-1-methyl-1,2,3,4-tetrahydro-5H-pyrido[2,3-e][1,4]diazepin-5-one], the Ki in assay [1] (Table 1) is less than 100 nM; in assay [1] (Table 2, dual compounds) it was less than 100 nM; in assay [2], less than 100 nM.
For `CNCC[C@H](Oc1ccc(CN2CCN(C)c3ncccc3C2=O)cc1)c1cccc(F)c1` [Example 151, (S)-4-(4-(1-(3-fluorophenyl)-3-(methylamjno)propoxy)benzyl)-1-methyl-1,2,3,4-tetrahydro-5H-pyrido[2,3-e][1,4]diazepin-5-one], the Ki in assay [1] (Table 1) was 100 to 500 nM; in assay [1] (Table 2, dual compounds) it was 100 to 500 nM; in assay [2], less than 100 nM.
For `CNCC[C@H](Oc1ccc(CN2CCN(C)c3ncccc3C2=O)c(F)c1)c1ccccc1F` [Example 152, (S)-4-(2-fluoro-4-(1-(2-fluorophenyl)-3-(methylamino)propoxy)benzyl)-1-methyl-1,2,3,4-tetrahydro-5H-pyrido[2,3-e][1,4]diazepin-5-one], the Ki in assay [1] (Table 1) was less than 100 nM; in assay [1] (Table 2, dual compounds), less than 100 nM; in assay [2], less than 100 nM.
Consider `CNCC[C@H](Oc1ccc(CN2CCN(C)c3nc(N)ccc3C2=O)c(F)c1)c1cccc(F)c1` [Example 153, (S)-8-amino-4-(2-fluoro-4-(1-(3-fluorophenyl)-3-(methylamino)propoxy)benzyl)-1-methyl-1,2,3,4-tetrahydro-5H-pyrido[2,3-e][1,4]diazepin-5-one], for which the Ki in assay [1] (Table 1) was less than 100 nM; in assay [1] (Table 2, dual compounds) it was less than 100 nM; in assay [2], less than 100 nM.
